Measured values taken from patent US20120245159A1, “COMPOSITION AND METHOD FOR CONTROLLING ARTHROPOD PESTS” (SUMITOMO CHEMICAL COMPANY, LIMITED, priority 2009, published 2012).

Tests used:
[1] = tested on: cotton aphid (Aphis gossypii); test: Test Example 3: pesticidal effect against cotton aphid by spray treatment (cucumber leaf disk, control value); format: in vivo; conditions: composition of the compound and clothianidin; spray over cucumber leaf disk, 25° C., 5 days; summary of Table 49
[2] = tested on: brown planthopper (Nilaparvata lugens); test: Test Example 4: pesticidal effect against brown planthopper by foliage spray treatment of rice (control value); format: in vivo; conditions: foliage spray of rice seedlings, third-instar larvae, after 5 days
[3] = composition of the compound and clothianidin, summary of Table 50
[4] = composition of the compound and dinotefuran, summary of Table 54
[5] = composition of the compound and imidacloprid, summary of Table 53
[6] = composition of the compound and nitenpyram, summary of Table 51
[7] = composition of the compound and thiamethoxam, summary of Table 52

CC(C)COc1cnccc1-c1nc2cc(C(F)(F)F)ccc2o1 [Compound 116, 2-(3-isobutoxypyridin-4-yl)-5-(trifluoromethyl)benzoxazole]
high pesticidal efficacy: pesticidal efficacy against cotton aphid (Aphis gossypii) [1] | pesticidal efficacy against brown planthopper (Nilaparvata lugens) [2, 3] | pesticidal efficacy against brown planthopper (Nilaparvata lugens) [2, 4] | pesticidal efficacy against brown planthopper (Nilaparvata lugens) [2, 5] | pesticidal efficacy against brown planthopper (Nilaparvata lugens) [2, 6] | pesticidal efficacy against brown planthopper (Nilaparvata lugens) [2, 7]

CC(C)(C)COc1cnccc1-c1nc2cc(C(F)(F)F)ccc2o1 [Compound 117, 2-[3-(2,2-dimethylpropoxy)pyridin-4-yl]-5-(trifluoromethyl)benzoxazole]
high pesticidal efficacy: pesticidal efficacy against cotton aphid (Aphis gossypii) [1] | pesticidal efficacy against brown planthopper (Nilaparvata lugens) [2, 3] | pesticidal efficacy against brown planthopper (Nilaparvata lugens) [2, 4] | pesticidal efficacy against brown planthopper (Nilaparvata lugens) [2, 5] | pesticidal efficacy against brown planthopper (Nilaparvata lugens) [2, 6] | pesticidal efficacy against brown planthopper (Nilaparvata lugens) [2, 7]

FC(F)(F)COc1cnccc1-c1nc2cc(C(F)(F)F)cnc2o1 [Compound 163]
high pesticidal efficacy: pesticidal efficacy against cotton aphid (Aphis gossypii) [1] | pesticidal efficacy against brown planthopper (Nilaparvata lugens) [2, 3] | pesticidal efficacy against brown planthopper (Nilaparvata lugens) [2, 4] | pesticidal efficacy against brown planthopper (Nilaparvata lugens) [2, 5] | pesticidal efficacy against brown planthopper (Nilaparvata lugens) [2, 6] | pesticidal efficacy against brown planthopper (Nilaparvata lugens) [2, 7]
